Here are results for one substance from patent publication US10874103B2, “Antibacterial composition comprising an acetal or a long-chain alkyl hexitane ether” (TEREOS STARCH & SWEETENERS BELGIUM, priority 2014, dated 2020).

Assay [1] has as its system Listeria: L. monocytogenes strains. Put plainly: MIC microdilution on wider panel (Example 8), Listeria strains. It is filed as cell-based. The protocol: The cultures studied, freshly isolated (after incubation on a blood agar at 37° C. for 18 h), are taken up in sterile water (10 mL) until a 0.5 McFarland (Mc) suspension i.e. at 1 to 2×10^8 CFU (bacteria)/cm^3 is obtained. The bacterial suspension was then diluted to obtain a final concentration of 1×10^6 CFU/cm^3. Each well contains an identical quantity of Mueller-Hinton medium (a rich medium for bacterial culture) and bacteria with final 0.5×10^6 CFU/cm^3. The test compounds of interest are solubilized in ethanol or DMSO at 25 mg/mL before being diluted to different concentrations two by two. On the multiwell plate, a first series has been planned comprising the culture medium without the test compound of interest. It corresponds to the growth control (control well). These controls serve as reference for comparing bacterial growth with that of the subsequent wells comprising different concentrations of the test compound of interest. The second series of wells comprises the mother solution for the test compound of interest for a concentration in the wells of 256 mg (7 mM). Each series of wells was diluted two by two until the last series for a final concentration of 0.25 mg/L (0.0007 mM). Each concentration is duplicated in the same plate. The plate is incubated for 18 h at 37° C. […] If there is antibacterial activity, the bacterial growth is inhibited, which means that no turbidity or bacterial residue is present. The minimum inhibitory concentrations (MIC) are tested on Gram-positive bacterial strains according to the recommendations of the “Clinical Laboratory Standards Institute” (Clinical-Laboratory-Standards-Institute, 6th ed. Approved standard M100-S17. CLSI, Wayne, Pa., 2007). The clinical strains have been isolated in the Hospice de Lyon. Listeria: L. monocytogenes (CIP 103575), clinical strain isolated from hemoculture (015189074801, LM1), a strain isolated from cerebrospinal liquid (015170199001, LM2), clinical strains isolated from hemoculture (015181840701, LM3). The cultures studied, freshly isolated (after incubation on a blood agar at 37° C. for 18 h), are taken up in sterile water (10 mL) until a 0.5 McFarland (Mc) suspension i.e. at 10^8 CFU (bacteria)/cm^3 is obtained. The bacterial suspension was then diluted to obtain a final concentration of 10^6 CFU/cm^3.
On the technique in general: In broth dilution the organism is exposed to a series of concentrations in liquid medium.

Assay [2] relates to Enterococci: E. faecium strains. The assay can be described thus: MIC microdilution on wider panel (Example 8), E. faecium strains. It is filed as cell-based. The protocol: The cultures studied, freshly isolated (after incubation on a blood agar at 37° C. for 18 h), are taken up in sterile water (10 mL) until a 0.5 McFarland (Mc) suspension i.e. at 1 to 2×10^8 CFU (bacteria)/cm^3 is obtained. The bacterial suspension was then diluted to obtain a final concentration of 1×10^6 CFU/cm^3.
Each well contains an identical quantity of Mueller-Hinton medium (a rich medium for bacterial culture) and bacteria with final 0.5×10^6 CFU/cm^3.
The test compounds of interest are solubilized in ethanol or DMSO at 25 mg/mL before being diluted to different concentrations two by two. On the multiwell plate, a first series has been planned comprising the culture medium without the test compound of interest. It corresponds to the growth control (control well). These controls serve as reference for comparing bacterial growth with that of the subsequent wells comprising different concentrations of the test compound of interest. The second series of wells comprises the mother solution for the test compound of interest for a concentration in the wells of 256 mg (7 mM). Each series of wells was diluted two by two until the last series for a final concentration of 0.25 mg/L (0.0007 mM). Each concentration is duplicated in the same plate. The plate is incubated for 18 h at 37° C. […] If there is antibacterial activity, the bacterial growth is inhibited, which means that no turbidity or bacterial residue is present.
The minimum inhibitory concentrations (MIC) are tested on Gram-positive bacterial strains according to the recommendations of the “Clinical Laboratory Standards Institute” (Clinical-Laboratory-Standards-Institute, 6th ed. Approved standard M100-S17. CLSI, Wayne, Pa., 2007). The clinical strains have been isolated in the Hospice de Lyon.
Enterococci: E. faecium (CIP 103510), clinical strains of Enterococci E. faecium: Van A 0151850763 (hereinafter Van A); strain 015 205731401 (hereinafter 1401), […]

For the substance Dodecyl-1,4-d-sorbitan [Example 2e], in assay [1] (L. monocytogenes CIP 103575), the “Minimum inhibitory concentration (MIC) CIP 103575” value is 32 µg/mL. The “Minimum inhibitory concentration (MIC) LM3” value in assay [1] (clinical strain from hemoculture 015181840701) stood at 32 µg/mL. In assay [1] (clinical strain from hemoculture 015189074801), the “Minimum inhibitory concentration (MIC) LM1” value was determined as 16 µg/mL. Also, the “Minimum inhibitory concentration (MIC) LM2” value in assay [1] (strain from cerebrospinal liquid 015170199001) was 32 µg/mL. In addition, the “Minimum inhibitory concentration (MIC) CIP 103510” value in assay [2] (E. faecium CIP 103510) turned out to be 16 µg/mL. The “Minimum inhibitory concentration (MIC) Van A” value in assay [2] (clinical E. faecium Van A 0151850763) is 16 µg/mL. Moreover, the “Minimum inhibitory concentration (MIC) 1401” value in assay [2] (clinical E. faecium strain 015 205731401) is 8 µg/mL.
